From ChEMBL document CHEMBL2407074, “Three dimensional structure of a bacterial α-l-fucosidase with a 5-membered iminocyclitol inhibitor” (Bioorg Med Chem, 2013)

Legend:
[1] = Inhibition of Bacteroides thetaiotaomicron recombinant alpha-L-fucosidase using 2-chloro-4-nitrophenyl-alpha-L-fucopyranoside as substrate after 5 mins by Michaelis Menten equation analysis
[2] = Inhibition of bovine kidney fucosidase; set-up: species or system Bos taurus

Ki [1]: 2000 nM | Ki [2]: 80 nM
SMILES: C[C@@H]1N[C@@H](c2nc3ccccc3[nH]2)[C@H](O)[C@@H]1O
